Experimental data: US20220002288A1, “MONOBACTAM COMPOUNDS AND USE THEREFOR” (priority 2018, published 2022)
Converted amounts (≈) assume the structure as drawn. Where a name gives a salt, the structure may show the parent alone. Read-outs that look alike come from different tables or passages of the source.

What was measured:
[1] = tested on: Acinetobacter baumannii, Pseudomonas aeruginosa, and Escherichia coli; experiment: In vitro antibacterial activity, summary statements over all strains of Experimental Example 1; format: cell-based; settings: method of Experimental Example 1
Experimental: (§1) Compounds: The compounds prepared in the above examples and comparative examples. All test compounds were dissolved and diluted with DMSO, and the final concentrations were prepared as 64, 32, 16, 8, 4, 2, 1, 0.5, 0.25, 0.125, 0.0625 μg/mL in the experiment.
(§2) Bacterial strains: 6 strains of Acinetobacter baumannii (codenames: HDBAB-YK4, HDBAB-YK7, HDBAB-YK12, HDBAB-YK16, HDBAB_OXA_7, ATCC 19606), 2 strains of Pseudomonas aeruginosa (codenames: HDBPA-YK9, HDBPA)-YK15), 1 strain of Escherichia coli (codename: CLB30048), all provided by HD Biosciences (Shanghai) Co., Ltd.
The minimum inhibitory concentration (MIC) of each compound was recorded according to the guidelines of the Clinical and Laboratory Standards Institute.

Pseudomonas aeruginosa = experiment: In vitro antibacterial activity, minimum inhibitory concentration (MIC); format: cell-based
Experimental: as §1, §2
(§3) Medium: Trypticase soy agar (TSA) (BD BBL 211043), and Cation-adjusted Mueller Hinton broth (CAMHB) (BD BBL212322).
(§4) The bacteria used for the minimum inhibitory concentration (MIC) test were stored frozen at −80° C., and needed 2 days to recover before use. A small amount of frozen bacteria was scraped with a sterile inoculation loop for streak inoculation on a TSA solid medium petri dish. The dish was placed in an ordinary incubator at 35±2° C. for 20-24 hours. 5-10 Colonies with similar morphologies were picked from the above-mentioned petri dish with a sterile inoculating loop for streak inoculation again on a TSA solid medium petri dish. The dish was then placed in an ordinary incubator at 35±2° C. for 20-24 hours.
(§5) 1.02×CAMHB liquid medium was taken out from a 4° C. refrigerator and placed at room temperature for preheating. 5-10 Individual bacterial colonies were picked from the solid petri dish of the above Section 2.1 and re-suspended in 500 μL of 0.9% NaCl, and then the OD600 was adjusted to 0.1-0.15 with a spectrophotometer. Then the bacteria were diluted 400 times with 1.02×CAMHB (two-step dilution method: firstly diluting 10 times, then diluting 40 times).
(§6) The number of inoculated bacteria can be obtained by counting the colonies on the petri dish (see Section 2.4).
(§7) One compound was arranged in each row of a 96-well test plate: the highest test concentration for each compound was 64 μg/mL, which was diluted by a factor of two.
(§8) Growth control (GC): 1.02×CAMHB and dimethyl sulfoxide (DMSO) containing bacterial inoculum, no compound.
(§9) Sterile control (SC): Containing 1.02×CAMHB and DMSO, no compound.
(§10) All test compounds were dissolved and diluted with DMSO. 50 μL of 3.2 mg/mL of each test compound was transferred to the initial well (A1-H1) of the dilution plate, and then 25 μL of DMSO was transferred to other wells. The test compounds were sequentially diluted by a factor of 2 from column 1 to column 11 (i.e. drawing 25 μL of test compound from column 1 to column 2 and mixing well, and then drawing 25 μL of test compound from column 2 to column 3 and mixing well, and then drawing 25 μL of test compound from column 3 to column 4 and mixing well, and so on, until diluting to column 11).
(§11) 2 μL of the compound was transferred from the compound plate to the corresponding well of the test plate. Meanwhile, 2 μL of 100% DMSO was transferred to the compound-free wells (the GC and SC wells).
(§12) 98 μL of the corresponding bacterial inoculum was added to the test plate (except for the SC well).
(§13) 98 μL of 1.02×CAMHB medium was added to the SC well of the test plate.
(§14) After the system was added, the test plate was covered with a sterile lid, centrifuged at 800 rpm for 30 seconds, then shaken on a plate shaker at 400 rpm for 1 minute for mixing well, and then placed in an incubator at 35±2° C. for 20 hours.
(§15) The inoculated bacteria were gradient diluted by 10 folds with the liquid medium, from 10^−1 to 10^−3. 100 μL of the above bacterial dilution was spread evenly on a TSA petri dish, 2 replicates for each dilution. After the medium was absorbed by TSA for 10 minutes, the petri dishes were reversed and incubated in an incubator at 35±2° C. for 24 hours.
(§16) A compound management system was turned on to check whether the barcode and compound arrangement of each test plate were correct. […]

Acinetobacter baumannii = experiment: as above; format: cell-based
Experimental: as §1, §2, §3, §4, §5, §6, §7, §8, §9, §10, §11, §12, §13, §14, §15, §16

Escherichia coli = experiment: as above; format: cell-based
Experimental: as §1, §2, §3, §4, §5, §6, §7, §8, §9, §10, §11, §12, §13, §14, §15, §16

[2] = Pharmacokinetics of the compounds in mice; format: in vivo, BALB/c mice; settings: mouse, plasma, male BALB/c mice, single intravenous dose 2 mg/kg, plasma; for Vd: male, BALB/c, iv, 2 mg/kg
Excerpt: Animals: male BALB/c mice, SPF grade, purchased from Changzhou Cavens Experimental Animal Co., Ltd.; 16-24 g, license number: SCXK (Su)2016-0010; 2 to 3 days of adaptation period were given before the experiment.
Instruments: API 4500 High Performance Liquid Chromatograph Coupled Triple Quadrupole Mass Spectrometer, and Analyst QS A01.01 Chromatography Workstation were both purchased from AB SCIEX of the United States; Milli-Q ultrapure water device was purchased from Millipore; CF16R XII desktop high-speed refrigerated centrifuge was purchased From Hitachi Company; Qilinbeier Vortex-5 oscillator was purchased from IKA Company of German; electric heating constant-temperature water bath was purchased from Changzhou Guohua Electric Appliance Co., Ltd.; electric pipette was purchased from Thermo Company of American; and microanalysis balance was purchased from Shanghai Mettler Co., Ltd.
2 mg of the test compound was weighed, added to physiological saline, vortexed for 2 min, and ultrasonicated for 3 min, to prepare a test solution with a concentration of 0.2 mg/mL for intravenous administration.
A single dose of 2 mg/kg of the test compound was administered to BALB/c mice via the tail vein, the dose volume being 0.1 mL/10 g. At 5 min, 15 min, 30 min, 1 h, 2 h, 4 h after administration, blood samples were collected from the orbital venous plexus into heparinized EP tubes (0.6 mL), which were temporarily placed on crushed ice.
The samples were centrifuged at 8000 rpm for 5 min. 15 μL of upper plasma were transferred to a 96-well plate. 150 μL of methanol:acetonitrile (v/v=1:1) (containing 20 ng/mL tolbutamide) was added to 15 μL of plasma, shaken for 3 min, and centrifuged at 4500 rpm for 5 min. 100 μL of supernatant was taken to a 2 mL deep well plate. 100 μL of diluent (pure water) was added. The samples were shaken for 3 min, and centrifuged at 4500 rpm for 5 min. 180 μL of the supernatant was transferred to the sample plate. The content of the compound in the supernatant sample was analyzed by LC-MS/MS, and various pharmacokinetic parameters were calculated with WinNonlin software.

Compound	in vitro antibacterial activity (in words) [1]	MIC (Pseudomonas aeruginosa; strain HDBPA-YK9)	MIC (Pseudomonas aeruginosa; strain HDBPA-YK15)	MIC (Acinetobacter baumannii; strain HDBAB-YK4)	MIC (Acinetobacter baumannii; strain HDBAB-YK7)	MIC (Acinetobacter baumannii; strain HDBAB-YK12)	MIC (Acinetobacter baumannii; strain HDBAB-YK16)	MIC (Acinetobacter baumannii; strain HDBAB_OXA_7)	MIC (Escherichia coli; strain CLB30048, read-out: MIC)	MIC (Acinetobacter baumannii; ATCC19606, strain ATCC 19606)	MIC (Escherichia coli)	Vd ([2]; read-out: VSS)	Vd ([2]; read-out: Vd)	AUC(0-inf) [2]	AUC(0-t) [2]	C0 [2]	clearance [2]	half-life [2]
CC1[C@@H](NC(=O)/C(=N\OC2(C(=O)O)CC2)c2csc(N)n2)[C@@H](CN2CCOC2=O)N1S(=O)(=O)O (some centres unmarked) [Compound B, reference compound]	significantly weaker	> 64 µg/mL	> 64 µg/mL	> 64 µg/mL	> 64 µg/mL	> 64 µg/mL	> 64 µg/mL	> 64 µg/mL	> 64 µg/mL									
CC1(C)[C@H](NC(=O)/C(=N\O[C@@H](COc2ccc(NC(=O)c3cn(CCCN)[n+](CC4CNC4)c3)cc2)C(=O)O)c2csc(N)n2)C(=O)N1OS(=O)(=O)[O-] [Example 2, (S)-3-((Z)-2-(((S)-2-(4-(1-(3-aminopropyl)-2-(azetidin-3-ylmethyl)-1H-pyrazol-2-ium-4-carboxamido)phenoxy)-1-carboxyethoxy)imino)-2-(2-aminothiazol-4-yl)acetylamido)-2,2-dimethyl-4-oxoazetidin-1-yl Sulfate]	excellent antibacterial activity	4 µg/mL	> 64 µg/mL	2 µg/mL	0.625 µg/mL	2 µg/mL	8 µg/mL	4 µg/mL		2 µg/mL	1 µg/mL							
C[n+]1cc(-c2ccc(OC[C@H](O/N=C(\C(=O)N[C@@H]3C(=O)N(OS(=O)(=O)[O-])C3(C)C)c3csc(N)n3)C(=O)O)cc2)ccc1NC(=O)[C@@H](N)CCCCN [Example 4, (S)-3-((Z)-2-(2-aminothiazol-4-yl)-2-(((S)-1-carboxy-2-(4-(6-((S)-2,6-diaminohexanamido)-1-methylpyridin-1-ium-3-yl)phenoxy)ethoxy)imino)acetylamino)-2,2-dimethyl-4-oxoazetidin-1-yl Sulfate]		16 µg/mL	> 64 µg/mL	2 µg/mL	2 µg/mL	4 µg/mL	32 µg/mL	16 µg/mL	8 µg/mL	2 µg/mL		0.73 L/kg	0.88 L/kg	813 ng·h/mL	751 ng·h/mL	3010 ng/mL	42.8 mL/min/kg	13.8 min
CC1(C)[C@H](NC(=O)/C(=N\O[C@@H](COc2ccc(-c3ccc(NC(=O)[C@@H](N)CCCCN)nc3)cc2)C(=O)O)c2csc(N)n2)C(=O)N1OS(=O)(=O)O [Example 5, (S)-2-((((Z)-1-(2-aminothiazol-4-yl)-2-(((S)-2,2-dimethyl-4-oxo-1-(sulfonyloxy)azetidin-3-yl)amino)-2-oxoethylene)amino)oxy)-3-(4-(6-((S)-2,6-diaminohexanamido)pyridin-3-yl)phenoxy)propionic Acid]		32 µg/mL (≈ 41.9 µM)	> 64 µg/mL	32 µg/mL (≈ 41.9 µM)	> 64 µg/mL	4 µg/mL (≈ 5.24 µM)	64 µg/mL (≈ 83.8 µM)	16 µg/mL (≈ 20.9 µM)	8 µg/mL (≈ 10.5 µM)	8 µg/mL (≈ 10.5 µM)								
C[n+]1cc(-c2ccc(OC[C@H](O/N=C(\C(=O)N[C@@H]3C(=O)N(OS(=O)(=O)[O-])C3(C)C)c3csc(N)n3)C(=O)O)cc2)ccc1NC(=O)[C@@H](N)CO [Example 6]		64 µg/mL (≈ 86.9 µM)	> 64 µg/mL	32 µg/mL (≈ 43.4 µM)	64 µg/mL (≈ 86.9 µM)	4 µg/mL (≈ 5.43 µM)	> 64 µg/mL	32 µg/mL (≈ 43.4 µM)	32 µg/mL (≈ 43.4 µM)	64 µg/mL (≈ 86.9 µM)								
CC1(C)[C@H](NC(=O)/C(=N\O[C@@H](COc2ccc(-c3ccc(NC(=O)[C@@H](N)CO)nc3)cc2)C(=O)O)c2csc(N)n2)C(=O)N1OS(=O)(=O)O [Example 7]		32 µg/mL (≈ 44.3 µM)	> 64 µg/mL	> 64 µg/mL	> 64 µg/mL	16 µg/mL (≈ 22.1 µM)	> 64 µg/mL	> 64 µg/mL	64 µg/mL (≈ 88.6 µM)	64 µg/mL (≈ 88.6 µM)								
C[n+]1cc(-c2ccc(OC[C@H](O/N=C(\C(=O)N[C@@H]3C(=O)N(OS(=O)(=O)[O-])C3(C)C)c3csc(N)n3)C(=O)O)cc2)ccc1NC(=O)[C@H](N)CCCCN [Example 8]		16 µg/mL (≈ 20.6 µM)	> 64 µg/mL	4 µg/mL (≈ 5.14 µM)	1 µg/mL (≈ 1.29 µM)	2 µg/mL (≈ 2.57 µM)	16 µg/mL (≈ 20.6 µM)	8 µg/mL (≈ 10.3 µM)	8 µg/mL (≈ 10.3 µM)	2 µg/mL (≈ 2.57 µM)								
CC1(C)[C@H](NC(=O)/C(=N\O[C@@H](CCCOc2ccc(-c3cn(CCCN)[n+](CC4CNC4)c3)cc2)C(=O)O)c2csc(N)n2)C(=O)N1OS(=O)(=O)[O-] [Example 10, (S)-3-((Z)-2-(((S)-4-(4-(1-(3-aminopropyl)-2-(azetidin-3-ylmethyl)-1H-pyrazol-2-ium-4-yl)phenoxy)-1-carboxybutoxy)imino)-2-(2-aminothiazol-4-yl)acetylamino)-2,2-dimethyl-4-oxoazetidin-1-yl Sulfate]		8 µg/mL	32 µg/mL	8 µg/mL	0.5 µg/mL	8 µg/mL	16 µg/mL	8 µg/mL	1 µg/mL	4 µg/mL								
CC1(C)[C@H](NC(=O)/C(=N\O[C@@H](COc2ccc(-c3ccc4[nH]c(CN)nc4c3)cc2)C(=O)O)c2csc(N)n2)C(=O)N1OS(=O)(=O)O [Example 11, (S)-3-(4-(2-(aminomethyl)-1H-benzo[d]imidazol-5-yl)phenoxy)-2-((((Z)-1-(2-aminothiazol-4-yl)-2-(((S)-2,2-dimethyl-4-oxo-1-(sulfonyloxy)azetidin-3-yl)amino)-2-oxoethylene)amino)oxy)propionic Acid]		32 µg/mL (≈ 46.5 µM)	> 64 µg/mL	> 64 µg/mL	> 64 µg/mL	16 µg/mL (≈ 23.2 µM)	> 64 µg/mL	> 64 µg/mL	32 µg/mL (≈ 46.5 µM)	> 64 µg/mL								
